US20120076781A1, “METHODS OF TREATING CANCERS WITH HER3 ANTISENSE OLIGONUCLEOTIDES” (ENZON PHARMACEUTICALS, INC., priority 2009, published 2012)
In the oligonucleotide strings, read from the 5' end, every base follows the letter of its sugar. An asterisk marks phosphorothioate; unmarked linkages are phosphodiester. Other units and linkages are bracketed, terminal groups are in braces. A string of capitals states the bases alone. l = locked nucleic acid (LNA); [5mC] = 5-methylcytosine; d = 2'-deoxy (DNA)

Legend:
Type in all cases: cell-based
Conditions in all cases: 25 nM
[1] = tested on: human HER3 mRNA; assay: Down-regulation of HER3 mRNA in transfected 15PC3 cells, real-time PCR
Method: (§1) 15PC3: The human prostate cancer cell line 15PC3 was cultured in DMEM (Sigma)+10% fetal bovine serum (FBS)+2 mM Glutamax I+gentamicin (25 μg/ml).
(§2) The cells were treated with oligonucleotides using the cationic liposome formulation LipofectAMINE 2000 (Gibco) as transfection vehicle. Cells were seeded in 6-well cell culture plates (NUNC) and treated when 80-90% confluent. Oligomer concentrations ranged from 1 nM to 25 nM final concentration. Formulation of oligomer-lipid complexes was carried out essentially as described by the manufacturer using serum-free OptiMEM (Gibco) and a final lipid concentration of 5 μg/mL LipofectAMINE 2000. Cells were incubated at 37° C. for 4 hours and treatment was stopped by removal of oligomer-containing culture medium. Cells were washed and serum-containing medium was added. After oligomer treatment, cells were allowed to recover for 20 hours before they were harvested for RNA analysis.
(§3) Total RNA was extracted from cells transfected as described above and using the Qiagen RNeasy kit (Qiagen cat. no. 74104) according to the manufacturer's instructions. First strand synthesis was performed using Reverse Transcriptase reagents from Ambion according to the manufacturer's instructions.
(§4) For each sample 0.5 μg total RNA was adjusted to (10.8 μl) with RNase free H2O and mixed with 2 μl random decamers (50 μM) and 4 μl dNTP mix (2.5 mM each dNTP) and heated to 70° C. for 3 min after which the samples were rapidly cooled on ice. After cooling the samples on ice, 2 μl 10× Buffer RT, 1 μl MMLV Reverse Transcriptase (100 U/μl) and 0.25 μl RNase inhibitor (10 U/μl) was added to each sample, followed by incubation at 42° C. for 60 min, heat inactivation of the enzyme at 95° C. for 10 min, and then cooling the sample to 4° C.
(§5) The sample content of human HER3, EGFR and HER2 mRNA was quantified using the human HER3, EGFR and HER2 ABI Prism Pre-Developed TaqMan Assay Reagents (Applied Biosystems cat. no. Hs00951444_ml (HER3), Hs00193306_ml (EGFR) and Hs00170433_ml (HER2) according to the manufacturer's instructions.
(§6) Glyceraldehyde-3-phosphate dehydrogenase (GAPDH) mRNA quantity was used as an endogenous control for normalizing any variance in sample preparation. The sample content of human GAPDH mRNA was quantified using the human GAPDH ABI Prism Pre-Developed TaqMan Assay Reagent (Applied Biosystems cat. no. 4310884E) according to the manufacturer's instructions.
(§7) The cDNA from the first strand synthesis performed as described in Example 5 was diluted 2-20 times, and analyzed by real time quantitative PCR using Taqman 7500 FAST or 7900 FAST from Applied Biosystems. The primers and probe were mixed with 2× Taqman Fast Universal PCR master mix (2×) (Applied Biosystems Cat. #4364103) and added to 4 μl cDNA to a final volume of 10 μl. Each sample was analysed in duplicate. Assaying 2-fold dilutions of a cDNA that had been prepared on material purified from a cell line expressing the RNA of interest generated standard curves for the assays. Sterile H2O was used instead of cDNA for the no-template control. PCR program: 95° C. for 30 seconds, followed by 40 cycles of 95° C., 3 seconds, 60° C., 20-30 seconds. Relative quantities of target mRNA sequence were determined from the calculated Threshold cycle using the Applied Biosystems Fast System SDS Software Version 1.3.1.21. or SDS Software Version 2.3.
(§8) Oligonucleotides presented in Table 4 were evaluated for their potential to down-regulate HER3, EGFR and HER2 mRNA at concentrations of 1, 5 and 25 nM in 15PC3 cells (or HUH-7 as indicated by *) (see FIGS. 2, 3, 4 and 5). SEQ ID NOs: 235 and 236 were used as scrambled controls.
(§9) The data in Table 4 are presented as percentage down-regulation of mRNA relative to mock transfected cells at 25 nM. Lower-case letters represent DNA monomers, bold, upper-case letters represent β-D-oxy-LNA monomers. All cytosines in LNA monomers are 5-methylcytosines. Subscript “s” represents a phosphorothioate linkage.

[2] = tested on: human HER2 mRNA; assay: Down-regulation of HER2 mRNA in transfected 15PC3 cells, real-time PCR
Method: as §1, §2, §3, §4, §5, §6, §7, §8, §9

[3] = tested on: human EGFR mRNA; assay: Down-regulation of EGFR mRNA in transfected 15PC3 cells, real-time PCR
Method: as §1, §2, §3, §4, §5, §6, §7, §8, §9

Substance | HER3: percentage down-regulation of mRNA relative to mock transfected cells [1] | HER2: percentage down-regulation of mRNA relative to mock transfected cells [2] | EGFR: percentage down-regulation of mRNA relative to mock transfected cells [3]
CSASTStScSaSaSgStStScStStSCSAST (antisense l[5mC]*lA*lT*dT*dC*dA*dA*dG*dT*dT*dC*dT*dT*l[5mC]*lA*lT) [SEQ ID NO: 184, β-D-oxy-LNA/DNA phosphorothioate gapmer antisense oligonucleotide targeting HER3] | 81.1% | – | –
CSASTSaScStScScStScSaStScSTSTSC (antisense l[5mC]*lA*lT*dA*dC*dT*dC*dC*dT*dC*dA*dT*dC*lT*lT*l[5mC]) [SEQ ID NO: 193, β-D-oxy-LNA/DNA phosphorothioate gapmer antisense oligonucleotide targeting HER3] | 64% | – | –
GSCSCScSaSgScSaScStSaSaStSTSTSC (antisense lG*l[5mC]*l[5mC]*dC*dA*dG*dC*dA*dC*dT*dA*dA*dT*lT*lT*l[5mC]) [SEQ ID NO: 186, β-D-oxy-LNA/DNA phosphorothioate gapmer antisense oligonucleotide targeting HER3] | 79.9% | – | –
TSCSASaStScSaStScScSaSaScSASCST (antisense lT*l[5mC]*lA*dA*dT*dC*dA*dT*dC*dC*dA*dA*dC*lA*l[5mC]*lT) [SEQ ID NO: 178, β-D-oxy-LNA/DNA phosphorothioate gapmer antisense oligonucleotide targeting HER3] | 76.7% | 88.6% | 0%
CSASTSgStSaSgSaScSaStScSaSASTST (l[5mC]*lA*lT*dG*dT*dA*dG*dA*dC*dA*dT*dC*dA*lA*lT*lT; antisense) [SEQ ID NO: 179] | 70.5% | 75.6% | 52.6%
ASTSASgScStScScSaSgSaScSaSTSCSA (antisense lA*lT*lA*dG*dC*dT*dC*dC*dA*dG*dA*dC*dA*lT*l[5mC]*lA) [SEQ ID NO: 173, β-D-oxy-LNA/DNA phosphorothioate gapmer antisense oligonucleotide targeting HER3] | – | 39.2% | 96.4%
CSASASgSgScStScSaScSaScSaSTSCST (antisense l[5mC]*lA*lA*dG*dG*dC*dT*dC*dA*dC*dA*dC*dA*lT*l[5mC]*lT) [SEQ ID NO: 182, β-D-oxy-LNA/DNA phosphorothioate gapmer antisense oligonucleotide targeting HER3] | 74.6% | – | –
CSASAStScSaStScScSaSaScSaSCSTST (antisense l[5mC]*lA*lA*dT*dC*dA*dT*dC*dC*dA*dA*dC*dA*l[5mC]*lT*lT) [SEQ ID NO: 177, β-D-oxy-LNA/DNA phosphorothioate gapmer antisense oligonucleotide targeting HER3] | 51.1% | 63.4% | 0%
CSASGSaScSaStScSaScStScStSGSGST (antisense l[5mC]*lA*lG*dA*dC*dA*dT*dC*dA*dC*dT*dC*dT*lG*lG*lT) [SEQ ID NO: 171, β-D-oxy-LNA/DNA phosphorothioate gapmer antisense oligonucleotide targeting HER3] | 70.6% | 2.8% | 84.2%
ASTSCScSaSaScSaScStStSgSaSCSCSA (antisense lA*lT*l[5mC]*dC*dA*dA*dC*dA*dC*dT*dT*dG*dA*l[5mC]*l[5mC]*lA) [SEQ ID NO: 176, β-D-oxy-LNA/DNA phosphorothioate gapmer antisense oligonucleotide targeting HER3] | 61.6% | 74.8% | 79.4%
CSASTScScSaSaScSaScStStSgSASCSC (antisense l[5mC]*lA*lT*dC*dC*dA*dA*dC*dA*dC*dT*dT*dG*lA*l[5mC]*l[5mC]) [SEQ ID NO: 175, β-D-oxy-LNA/DNA phosphorothioate gapmer antisense oligonucleotide targeting HER3] | 65.5% | 76.9% | 86.1%
TSCSAScSaScScSaStSaSgScStSCSCSA (antisense lT*l[5mC]*lA*dC*dA*dC*dC*dA*dT*dA*dG*dC*dT*l[5mC]*l[5mC]*lA) [SEQ ID NO: 174, β-D-oxy-LNA/DNA phosphorothioate gapmer antisense oligonucleotide targeting HER3] | – | 94.8% | 86.4%
CSTSCScSaSgSaScSaStScSaScSTSCST (antisense l[5mC]*lT*l[5mC]*dC*dA*dG*dA*dC*dA*dT*dC*dA*dC*lT*l[5mC]*lT) [SEQ ID NO: 170, β-D-oxy-LNA/DNA phosphorothioate gapmer antisense oligonucleotide targeting HER3] | – | 65.8% | 91.5%
